The source of these data is publication PMC8269135, “Diethylstilbestrol, a Novel ANO1 Inhibitor, Exerts an Anticancer Effect on Non-Small Cell Lung Cancer via Inhibition of ANO1” (International Journal of Molecular Sciences, 2021).

Experiment [1] deals with T1, cystic fibrosis transmembrane conductance regulator (CFTR) (Homo sapiens, UniProt P13569).
T1 construct: human CFTR expressed in FRT cells
The experiment in a line: YFP fluorescence and Ussing chamber short-circuit current in FRT-hCFTR cells, […]. It is filed as cell-based.

A further experiment deals with T2, Anoctamin1 (ANO1) (Homo sapiens, UniProt Q5XXA6).
T2 construct: human ANO1 expressed in FRT cells (YFP assay, Ussing chamber) and HEK293 cells (patch clamp)
T2 sequence (Q5XXA6 1-986): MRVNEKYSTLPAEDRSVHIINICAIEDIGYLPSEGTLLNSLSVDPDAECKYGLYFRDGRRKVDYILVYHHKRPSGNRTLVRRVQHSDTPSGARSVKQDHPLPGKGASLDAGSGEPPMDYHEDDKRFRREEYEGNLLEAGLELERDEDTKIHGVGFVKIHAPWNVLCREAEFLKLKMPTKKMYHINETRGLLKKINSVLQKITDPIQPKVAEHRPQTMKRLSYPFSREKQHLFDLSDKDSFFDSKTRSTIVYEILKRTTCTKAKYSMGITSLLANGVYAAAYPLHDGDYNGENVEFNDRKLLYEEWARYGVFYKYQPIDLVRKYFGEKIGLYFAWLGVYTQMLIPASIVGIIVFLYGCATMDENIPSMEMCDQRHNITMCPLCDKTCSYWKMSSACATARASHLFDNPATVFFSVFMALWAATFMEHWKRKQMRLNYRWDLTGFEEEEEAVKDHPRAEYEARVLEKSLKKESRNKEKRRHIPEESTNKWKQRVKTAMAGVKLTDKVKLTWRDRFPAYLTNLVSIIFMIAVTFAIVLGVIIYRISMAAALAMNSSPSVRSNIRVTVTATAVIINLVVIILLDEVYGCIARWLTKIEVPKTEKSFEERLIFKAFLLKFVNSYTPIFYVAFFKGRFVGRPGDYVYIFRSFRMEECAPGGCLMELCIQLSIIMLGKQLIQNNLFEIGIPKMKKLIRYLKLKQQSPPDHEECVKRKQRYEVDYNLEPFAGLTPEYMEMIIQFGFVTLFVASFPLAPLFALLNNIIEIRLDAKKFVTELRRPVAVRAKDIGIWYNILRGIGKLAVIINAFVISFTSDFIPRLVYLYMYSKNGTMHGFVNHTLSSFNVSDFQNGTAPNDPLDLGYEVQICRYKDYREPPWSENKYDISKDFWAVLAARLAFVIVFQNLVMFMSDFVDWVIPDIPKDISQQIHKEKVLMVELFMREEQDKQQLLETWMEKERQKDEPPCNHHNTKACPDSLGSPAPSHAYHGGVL
The experiment can be described thus: YFP quenching assay in FRT-ANO1 cells; short-circuit current; whole-cell patch clamp in HEK293. It is filed as cell-based. For orientation: Patch clamp records ionic current or voltage across a cell membrane.

Molecules are shown by their SMILES.

T1 sequence (P13569 whole entry): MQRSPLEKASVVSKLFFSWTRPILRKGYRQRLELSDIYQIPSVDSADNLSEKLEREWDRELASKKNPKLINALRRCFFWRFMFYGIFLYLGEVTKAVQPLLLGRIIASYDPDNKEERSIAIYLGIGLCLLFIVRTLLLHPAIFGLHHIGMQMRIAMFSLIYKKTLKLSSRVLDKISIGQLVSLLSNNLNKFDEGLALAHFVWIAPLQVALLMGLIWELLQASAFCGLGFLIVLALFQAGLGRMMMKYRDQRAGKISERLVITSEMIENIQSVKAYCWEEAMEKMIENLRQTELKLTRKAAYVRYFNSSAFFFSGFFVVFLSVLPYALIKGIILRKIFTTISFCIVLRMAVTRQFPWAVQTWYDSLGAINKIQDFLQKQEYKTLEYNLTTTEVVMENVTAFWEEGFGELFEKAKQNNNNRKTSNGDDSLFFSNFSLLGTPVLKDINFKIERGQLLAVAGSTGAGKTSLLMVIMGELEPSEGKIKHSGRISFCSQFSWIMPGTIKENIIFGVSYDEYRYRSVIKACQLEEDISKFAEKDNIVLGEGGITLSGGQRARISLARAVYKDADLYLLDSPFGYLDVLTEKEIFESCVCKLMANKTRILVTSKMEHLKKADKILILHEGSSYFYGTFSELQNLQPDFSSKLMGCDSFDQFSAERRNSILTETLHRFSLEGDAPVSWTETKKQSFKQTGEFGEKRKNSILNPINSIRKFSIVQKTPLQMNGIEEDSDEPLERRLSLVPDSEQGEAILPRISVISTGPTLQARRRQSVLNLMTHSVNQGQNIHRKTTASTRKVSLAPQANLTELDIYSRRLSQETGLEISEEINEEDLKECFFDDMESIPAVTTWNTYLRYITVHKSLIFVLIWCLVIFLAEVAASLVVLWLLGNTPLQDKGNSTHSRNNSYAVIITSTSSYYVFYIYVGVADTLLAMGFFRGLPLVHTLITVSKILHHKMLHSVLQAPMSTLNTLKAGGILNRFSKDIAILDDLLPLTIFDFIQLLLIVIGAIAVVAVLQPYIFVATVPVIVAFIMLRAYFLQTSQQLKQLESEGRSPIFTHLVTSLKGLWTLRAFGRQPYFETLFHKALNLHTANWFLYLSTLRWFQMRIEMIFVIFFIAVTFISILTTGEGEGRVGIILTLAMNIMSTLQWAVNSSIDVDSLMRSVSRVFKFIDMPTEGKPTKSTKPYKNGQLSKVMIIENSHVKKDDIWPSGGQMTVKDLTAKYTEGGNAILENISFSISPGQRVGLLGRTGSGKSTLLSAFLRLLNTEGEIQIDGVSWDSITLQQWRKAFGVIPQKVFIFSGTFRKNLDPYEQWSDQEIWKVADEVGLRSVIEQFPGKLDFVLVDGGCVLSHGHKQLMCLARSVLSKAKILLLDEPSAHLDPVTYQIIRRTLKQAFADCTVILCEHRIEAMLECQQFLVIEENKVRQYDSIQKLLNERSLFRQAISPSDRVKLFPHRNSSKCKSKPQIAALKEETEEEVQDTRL

As to `O=C(O)c1ccc(/C=C2\SC(=S)N(c3cccc(C(F)(F)F)c3)C2=O)cc1` [CFTRinh-172], the “YFP fluorescence and Ussing chamber short-circuit current in FRT-hCFTR cells, 10” value in experiment [1] is given as “forskolin-induced CFTR activity was inhibited by CFTRinh172 (a known CFTR channel inhibitor)”.
A word on the IC50: it is the concentration at which inhibition is half-maximal. A lower IC50 goes with higher potency. `CC/C(=C(/CC)c1ccc(O)cc1)c1ccc(O)cc1` [DES, diethylstilbestrol]: the half-maximal inhibitory concentration (IC50) at Anoctamin1 (ANO1) stood at 6.58 µM.
